From ChEMBL document CHEMBL1152723, “Remarkable enhancement in the DNA-binding ability of C2-fluoro substituted pyrrolo[2,1-c][1,4]benzodiazepines and their anticancer potential” (2009)

Assays:
Type in all cases: functional
TK-10 = test: Growth inhibition of human TK10 cells after 48 hrs by sulforhodamine B protein assay; details: TK-10, 48 h
EKVX = test: Growth inhibition of human EKVX cells after 48 hrs by sulforhodamine B protein assay
A498 = test: Growth inhibition of human A498 cells after 48 hrs by sulforhodamine B protein assay; details: A498, 48 h
U-251 = test: Growth inhibition of human U251 cells after 48 hrs by sulforhodamine B protein assay; details: U-251, 48 h
SNB-75 = test: Growth inhibition of human SNB75 cells after 48 hrs by sulforhodamine B protein assay; details: SNB-75, 48 h
MDA-MB-231 = test: Growth inhibition of human MDA-MB-231 cells after 48 hrs by sulforhodamine B protein assay; details: MDA-MB-231, 48 h
HCC 2998 = test: Growth inhibition of human HCC2998 cells after 48 hrs by sulforhodamine B protein assay; details: HCC 2998, 48 h
HOP-62 = test: Growth inhibition of human HOP62 cells after 48 hrs by sulforhodamine B protein assay; details: HOP-62, 48 h
OVCAR-5 = test: Growth inhibition of human OVCAR5 cells after 48 hrs by sulforhodamine B protein assay; details: OVCAR-5, 48 h
SW-620 = test: Growth inhibition of human SW620 cells after 48 hrs by sulforhodamine B protein assay; details: SW-620, 48 h
UACC-62 = test: Growth inhibition of human UACC62 cells after 48 hrs by sulforhodamine B protein assay; details: UACC-62, 48 h
NCI-H226 = test: Growth inhibition of human NCI-H226 cells after 48 hrs by sulforhodamine B protein assay; details: NCI-H226, 48 h
MDA-MB-468 = test: Growth inhibition of human MDA-MB-468 cells after 48 hrs by sulforhodamine B protein assay; details: MDA-MB-468, 48 h
UO-31 = test: Growth inhibition of human UO31 cells after 48 hrs by sulforhodamine B protein assay; details: UO-31, 48 h
SF-268 = test: Growth inhibition of human SF268 cells after 48 hrs by sulforhodamine B protein assay; details: SF-268, 48 h
ACHN = test: Growth inhibition of human ACHN cells after 48 hrs by sulforhodamine B protein assay

COc1cc2c(cc1OCCCN1CCN(CCCOc3cc4c(cc3OC)C(=O)N3CC(F)C[C@H]3C=N4)CC1)N=C[C@@H]1CC(F)CN1C2=O (stereo partly specified)
GI50 (TK-10): 250 nM
GI50 (EKVX): 170 nM
GI50 (A498): < 60 nM
GI50 (U-251): < 10 nM
GI50 (SNB-75): < 30 nM
GI50 (MDA-MB-231): 130 nM
GI50 (HCC 2998): 110 nM
GI50 (HOP-62): < 10 nM
GI50 (OVCAR-5): 160 nM
GI50 (SW-620): < 50 nM
GI50 (UACC-62): < 80 nM
GI50 (NCI-H226): 100 nM
GI50 (MDA-MB-468): < 10 nM
GI50 (UO-31): 1030 nM
GI50 (SF-268): < 10 nM
GI50 (ACHN): 150 nM
